pIC50: −log10 of the molar value.
test system: purified human Hsp90; experiment: Binding Assay: fluorescence polarization with BODIPY-labeled geldanamycin; details: 5 μM compound, BODIPY-GM 10 nM, Hsp90 30 nM
How it was run: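 Fluorescence polarization competition with BODIPY-geldanamycin (10 nM final) and human Hsp90 (30 nM final) in HEPES-KOH pH 7.3 buffer with molybdate, NP-40, DTT; 2% DMSO, overnight at room temperature. Read 485/530 nm; percent inhibition from mP normalized to DMSO controls, fluorescent-compound points excluded.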

Compared with `CC(C)[C@H](NC(=O)OC(C)(C)C)C(=O)N1CCCC(CCn2cnc(N)c3nc(Sc4cc5c(cc4Br)OCO5)nc2-3)C1` (stereo partly drawn) [Example 698, tert-Butyl((1S)-1-{[3-(2-{6-amino-8-[(6-bromo-1,3-benzodioxol-5-yl)thio]-3H-purin-3-yl}ethyl)piperidin-1-yl]carbonyl}-2-methylpropyl)carbamate], `CCOC(=O)[C@@H]1C[C@H](CCn2cnc(N)c3nc(Sc4cc5c(cc4Br)OCO5)nc2-3)CCN1C(=O)OC(C)(C)C` (relative stereo) [Example 423, 1-tert-Butyl 2-ethyl cis-4-(2-{6-amino-8-[(6-bromo-1,3-benzodioxol-5-yl)thio]-3H-purin-3-yl}ethyl)piperidine-1,2-dicarboxylate] is lower in “% Inhibition at 5 μM Compound Concentration” value (“% Inhibition” below): 55% for the first, 0% for the second.

Going from `Nc1ncn(CCc2cccc(F)c2)c2nc(Sc3cc4c(cc3Br)OCO4)nc1-2` [Example 110, 8-(6-bromo-benzo[1,3]dioxol-5-ylsulfanyl)-3-[2-(3-fluoro-phenyl)-ethyl]-3H-purin-6-ylamine] to `Nc1ncn(CCc2ccccc2)c2nc(Cc3cc4c(cc3Br)OCO4)nc1-2` [Example 210, 8-(6-Bromo-benzo[1,3]dioxol-5-ylmethyl)-3-phenethyl-3H-purin-6-ylamine], the “% Inhibition” value falls from 16% to 8%.

Going from `Nc1ncnc2c1nc(Sc1cc3c(cc1Br)OCO3)n2CCC1CCCCC1` [Example 173, 8-(6-Bromo-benzo[1,3]dioxol-5-ylsulfanyl)-9-(2-cyclohexyl-ethyl)-9H-purin-6-ylamine] to `Nc1ncn(CCC2CCCCC2)c2nc(Sc3cc4c(cc3Br)OCO4)nc1-2` [Example 174, 8-(6-bromo-benzo[1,3]dioxol-5-ylsulfanyl)-3-(2-cyclohexyl-ethyl)-3H-purin-6-ylamine], the “% Inhibition” value falls from 44% to 37%.

Compared with `Nc1ncnc2c1nc(Sc1cc3c(cc1Br)OCO3)n2CCc1cccc(F)c1F` [Example 161, 8-(6-Bromo-benzo[1,3]dioxol-5-ylsulfanyl)-9-[2-(2,3-difluoro-phenyl)-ethyl]-9H-purin-6-ylamine], `COc1ccc(OC)c(Sc2nc3c(N)ncnc3n2CCc2ccc3c(c2)OCO3)c1` [Example 167, 9-(2-Benzo[1,3]dioxol-5-yl-ethyl)-8-(2,5-dimethoxy-phenylsulfanyl)-9H-purin-6-ylamine] is higher in “% Inhibition” value: 17% for the first, 44% for the second.

Compared with `CC(C)N1CCCCC1CCn1cnc(N)c2nc(Sc3cc4c(cc3Br)OCO4)nc1-2` (centres unmarked) [Example 446, 8-[(6-Bromo-1,3-benzodioxol-5-yl)thio]-3-[2-(1-isopropylpiperidin-2-yl)ethyl]-3H-purin-6-amine], `COc1ccc(OC)c(Sc2nc3c(N)ncn(CC(c4ccccc4)C4CCCC4)c-3n2)c1` (centres unmarked) [Example 104, 3-(2-cyclopentyl-2-phenyl-ethyl)-8-(2,5-dimethoxy-phenylsulfanyl)-3H-purin-6-ylamine] is higher in “% Inhibition” value: 4% for the first, 38% for the second.

First: COc1ccc(OC)c(Sc2nc3c(N)ncnc3n2CCCc2ccccc2)c1 [Example 3, 8-(2,5-Dimethoxy-phenylsulfanyl)-9-(3-phenyl-propyl)-9H-purin-6-ylamine]
Second: CCC(Cn1c(Sc2cc(OC)ccc2OC)nc2c(N)ncnc21)c1ccccc1 (centres unmarked) [Example 87, 8-(2,5-Dimethoxy-phenylsulfanyl)-9-(2-phenyl-butyl)-9H-purin-6-ylamine]
The “% Inhibition” value of the first is higher: 36% for the first, 12% for the second.

Going from `COc1ccc(C#N)cc1Sc1nc2c(N)ncn(CCc3ccccc3)c-2n1` [Example 305, 3-{[6-Amino-3-(2-phenylethyl)-3H-purin-8-yl]thio}-4-methoxybenzonitrile] to `COc1ccc(I)c(Sc2nc3c(N)ncn(CCc4ccccc4)c-3n2)c1` [Example 323, 8-[(2-Iodo-5-methoxyphenyl)thio]-3-(2-phenylethyl)-3H-purin-6-amine], the “% Inhibition” value falls from 29.0% to 0.0%.

`COc1ccc(OC)c(Sc2nc3c(N)ncn(CCc4cccc(F)c4F)c-3n2)c1` [Example 146, 3-[2-(2,3-difluoro-phenyl)-ethyl]-8-(2,5-dimethoxy-phenylsulfanyl)-3H-purin-6-ylamine] was tested, and the “% Inhibition” value was 0%.

same assay, conditions: BODIPY-GM 10 nM, Hsp90 30 nM

`Nc1ncnc2c1nc(Sc1cc3c(cc1Br)OCO3)n2CCC1CCN(C(=O)[C@@H](O)CO)CC1` [Example 771, (2S)-3-[4-(2-{6-amino-8-[(6-bromo-1,3-benzodioxol-5-yl)thio]-9H-purin-9-yl}ethyl)piperidin-1-yl]-3-oxopropane-1,2-diol] and `N=C(N)N1CCC(CCn2c(Sc3cc4c(cc3Br)OCO4)nc3c(N)ncnc32)CC1` [Example 616, 4-(2-{6-Amino-8-[(6-bromo-1,3-benzodioxol-5-yl)thio]-9 H-purin-9-yl}ethyl)piperidine-1-carboximidamide] are within 0.2 log units of each other in pIC50: 6.92 for the first, 7.05 for the second.

Compared with `COc1cc(Sc2nc3c(N)nc(F)nc3n2CCc2c(Cl)cccc2Cl)c(Cl)c(OC)c1OC` [Example 239, 8-[(2-Chloro-3,4,5-trimethoxyphenyl)thio]-9-[2-(2,6-dichlorophenyl)ethyl]-2-fluoro-9H-purin-6-amine], `COc1ccc(CCn2c(Sc3cc(OC)ccc3OC)nc3c(N)ncnc32)cc1` [Example 247, 8-[(2,5-Dimethoxyphenyl)thio]-9-[2-(4-methoxyphenyl)ethyl]-9H-purin-6-amine] is higher in pIC50: less than 4.60 for the first, 5.52 for the second. The second is the more potent here.

First: Nc1ncnc2c1nc(Sc1cc3c(cc1Br)OCO3)n2CCC1CCCCC1 [Example 173, 8-(6-Bromo-benzo[1,3]dioxol-5-ylsulfanyl)-9-(2-cyclohexyl-ethyl)-9H-purin-6-ylamine]
Second: Nc1ncnc2c1nc(Sc1cc3c(cc1Br)OCO3)n2CCC1CCNC1 (centres unmarked) [Example 476, 8-[(6-Bromo-1,3-benzodioxol-5-yl)thio]-9-(2-pyrrolidin-3-ylethyl)-9 H-purin-6-amine]
The pIC50 of the first is lower: less than 4.60 for the first, 7.05 for the second. The second is the more potent here.

`Nc1ncnc2c1nc(Sc1cc3c(cc1Br)OCO3)n2CCc1cccc(F)c1F` [Example 161, 8-(6-Bromo-benzo[1,3]dioxol-5-ylsulfanyl)-9-[2-(2,3-difluoro-phenyl)-ethyl]-9H-purin-6-ylamine] and `CCC(Cn1c(Sc2cc3c(cc2Br)OCO3)nc2c(N)ncnc21)c1ccccc1` (centres unmarked) [Example 57, 8-(6-Bromo-benzo[1,3]dioxol-5-ylsulfanyl)-9-(2-phenyl-butyl)-9H-purin-6-ylamine] are within 0.2 log units of each other in pIC50: 6.49 for the first, 6.40 for the second.

Going from `CC(C)(C)OC(=O)N1CC[C@H](CCn2c(Sc3cc4c(cc3Br)OCO4)nc3c(N)ncnc32)C1` [Example 418, tert-Butyl (3R)-3-(2-{6-amino-8-[(6-bromo-1,3-benzodioxol-5-yl)thio]-9H-purin-9-yl}ethyl)pyrrolidine-1-carboxylate] to `CC(C)(C)OC(=O)N1CCOC(CCn2c(Sc3cc4c(cc3Br)OCO4)nc3c(N)ncnc32)C1` (centres unmarked) [Example 367, tert-Butyl 2-(2-{6-amino-8-[(6-bromo-1,3-benzodioxol-5-yl)thio]-9H-purin-9-yl}ethyl)morpholine-4-carboxylate], the pIC50 falls from 6.52 to less than 4.60. The first is the more potent here.

First: C[C@H](C(=O)N1CCC(CCn2c(Sc3cc4c(cc3Br)OCO4)nc3c(N)ncnc32)CC1)N(C)C(=O)OC(C)(C)C [Example 717, tert-Butyl{(1R)-2-[4-(2-{6-amino-8-[(6-bromo-1,3-benzodioxol-5-yl)thio]-9H-purin-9-yl}ethyl)piperidin-1-yl]-1-methyl-2-oxoethyl}methylcarbamate]
Second: C[C@@H](NC(=O)OC(C)(C)C)C(=O)N1CCC[C@@H](CCn2c(Sc3cc4c(cc3Br)OCO4)nc3c(N)ncnc32)C1 [Example 734, tert-Butyl{(1R)-2-[(3S)-3-(2-{6-amino-8-[(6-bromo-1,3-benzodioxol-5-yl)thio]-9H-purin-9-yl}ethyl)piperidin-1-yl]-1-methyl-2-oxoethyl}carbamate]
The pIC50 of the first is higher: 6.70 for the first, less than 5.70 for the second. The first is the more potent here.

`Nc1ncnc2c1nc(Sc1cc3c(cc1Br)OCO3)n2CCC12CC3CC(CC(C3)C1)C2` [Example 356, 9-[2-(1-Adamantyl)ethyl]-8-[(6-bromo-1,3-benzodioxol-5-yl)thio]-9H-purin-6-amine] and `CC1(C)C(C(=O)N2CCC(CCn3c(Sc4cc5c(cc4Br)OCO5)nc4c(N)ncnc43)CC2)C1(C)C` [Example 520, 8-[(6-Bromo-1,3-benzodioxol-5-yl)thio]-9-(2-{1-[(2,2,3,3-tetramethylcyclopropyl)carbonyl]piperidin-4-yl}ethyl)-9 H-purin-6-amine] cannot be ordered by pIC50: less than 4.60 for the first, less than 5.70 for the second.

Going from `Nc1ncn(CCC2CCCCC2)c2nc(Sc3cc4c(cc3Br)OCO4)nc1-2` [Example 174, 8-(6-bromo-benzo[1,3]dioxol-5-ylsulfanyl)-3-(2-cyclohexyl-ethyl)-3H-purin-6-ylamine] to `C[C@@H](NC(=O)OC(C)(C)C)C(=O)N1CCCC(CCn2c(Sc3cc4c(cc3Br)OCO4)nc3c(N)ncnc32)C1` (stereo partly drawn) [Example 701, tert-Butyl{(1R)-2-[3-(2-{6-amino-8-[(6-bromo-1,3-benzodioxol-5-yl)thio]-9H-purin-9-yl}ethyl)piperidin-1-yl]-1-methyl-2-oxoethyl}carbamate], the pIC50 rises from less than 4.60 to 6.70. The second is the more potent here.

First: COc1ccc(OC)c(Sc2nc3c(N)ncnc3n2CCC2CCN(C=O)CC2)c1 [Example 358, 4-(2-{6-Amino-8-[(2,5-dimethoxyphenyl)thio]-9H-purin-9-yl}ethyl)piperidine-1-carbaldehyde]
Second: COc1ccc(OC)c(Sc2nc3c(N)ncnc3n2CCC2C(=O)NN=C2C)c1 (centres unmarked) [Example 407, 4-(2-{6-Amino-8-[(2,5-dimethoxyphenyl)thio]-9H-purin-9-yl}ethyl)-5-methyl-2,4-dihydro-3H-pyrazol-3-one]
The pIC50 of the first is higher: 6.35 for the first, less than 4.60 for the second. The first is the more potent here.

`N#Cc1ccc(Sc2nc3c(N)ncnc3n2CCc2ccccc2)cc1` [Example 19, 4-(6-Amino-9-phenethyl-9H-purin-8-ylsulfanyl)-benzonitrile] and `Nc1ncnc2c1nc(Sc1cc(OC(F)(F)F)ccc1OC1CCCC1)n2CCc1ccccc1` [Example 328, 8-{[2-(Cyclopentyloxy)-5-(trifluoromethoxy)phenyl]thio}-9-(2-phenylethyl)-9H-purin-6-amine] cannot be ordered by pIC50: less than 5.00 for the first, less than 5.10 for the second.

`COc1ccc(OC)c(Sc2nc3c(N)ncnc3n2CC(c2ccccc2)C2CCCC2)c1` (centres unmarked) [Example 103, 9-(2-Cyclopentyl-2-phenyl-ethyl)-8-(2,5-dimethoxy-phenylsulfanyl)-9H-purin-6-ylamine] and `COc1ccc(OC)c(Sc2nc3c(N)ncnc3n2CCc2ccc3c(c2)OCO3)c1` [Example 167, 9-(2-Benzo[1,3]dioxol-5-yl-ethyl)-8-(2,5-dimethoxy-phenylsulfanyl)-9H-purin-6-ylamine] cannot be ordered by pIC50: less than 6.00 for the first, less than 4.60 for the second.

Work on `COc1ccc([N+](=O)[O-])cc1Sc1nc2c(N)ncn(CCC3CCN(C=O)CC3)c-2n1` [Example 537, 4-(2-{6-Amino-8-[(2-methoxy-5-nitrophenyl)thio]-3 H-purin-3-yl}ethyl)piperidine-1-carbaldehyde] yielded a pIC50 of less than 5.30.
